Where two headings read alike, the source gives them in different places.
Columns and labels:
[1] = tested on: TAMH cells overexpressing Bcl-xL (TAMH-Bcl-xL, Tabx2s); test: Cytotoxicity / apoptosis induction in TAMH cells overexpressing Bcl-xL; format: cell-based; settings: for Neo:Bcl: ratio Neo to Bcl-xL cells
Description: (§1) To examine the sensitivity of cells over-expressing Bcl-xL to various mitochondrial inhibitors and apoptosis inducers, cell lines over-expressing Bcl-xL were prepared and tested according to Hockenberry et al. U.S. Pat. No. 7,241,804, hereby incorporated by reference in its entirety. Competitive binding of compounds with fluorescent antimycin A3, and competitive binding of compounds with BH3 peptide and Bcl-2. Competitive binding of compounds with BH-3 peptide were also measured using Bcl-xL as previously described. Id.
(§2) Cell lines were grown in RPMI 1640 medium (Gibco, Grand Island, N.Y.) supplemented with 5% fetal bovine serum (Hyclone, Logan, Utah). Also shown is the ratio of TAMH cells expressing Bcl-xL to those expressing A142L (WT:142L). The assay measures the potency of various compounds with respect to inducing apoptosis in these cells.
(§3) The compounds described in Example 2 were tested for their ability to inhibit Bcl-2 gain-of-function in TAMH cells, TAMH cells overexpressing […] (TAMH-Bcl-xL), TAMH cells transfected with Neo vector (Neo), TAMH cells over expressing a variant of Bcl-xL (A142L) using the methods of Example 1. 3-6.
(§4) The effects of the compounds described in Example 8 on TAMH cells, TAMH cells overexpressing Bcl-xL (TAMH-Bcl-xL), TAMH cells transfected with Neo vector (Neo), TAMH cells over expressing a variant of Bcl-xL (A142L) is shown in Table 8
(§5) The effects of the compounds described in Example 10 on TAMH cells, TAMH cells overexpressing Bcl-xL (TAMH-Bcl-xL), TAMH cells transfected with Neo vector (Neo), TAMH cells over expressing a variant of Bcl-xL (A142L) is shown in the following Table 10

[2] = tested on: TAMH cells transfected with Neo vector (Neo); test: Cytotoxicity / apoptosis induction in TAMH cells transfected with Neo vector; format: cell-based; settings: for IC50: read-out: IC50 TAMH Neo
Description: as §1, §2, §3, §4, §5

[3] = tested on: TAMH cells over expressing a variant of Bcl-xL (A142L); test: Cytotoxicity / apoptosis induction in TAMH cells over expressing Bcl-xL variant A142L; format: cell-based; settings: Table 4; for EC50: TAMH A142L cells; for WT:142L: ratio of TAMH cells expressing Bcl-xL to those expressing A142L
Description: as §1, §2, §3

[4] = Table 3, TAMH cells overexpressing Bcl-xL (Tabx2s), read-out: 2S EC50
[5] = Table 3, TAMH Neo cells, read-out: Neo EC50
[6] = Table 5, TAMH cells overexpressing Bcl-xL (Tabx2s), read-out: 2S EC50
[7] = Table 5, TAMH Neo cells, read-out: Neo EC50
[8] = Table 4, TAMH-Bcl-xL cells, read-out: Bcl-xL
[9] = Table 4, TAMH Neo cells, read-out: Neo
[10] = Table 10, read-out: IC50 TAMH Bcl-XL

SMILES: Oc1ccc(Cl)cc1/C=N/Nc1ccc(C(F)(F)F)cn1 [Compound 0231]
- Log P (Log P; Table 3): 3.560
- EC50 [1, 4]: 2.1 µM
- EC50 [2, 5]: ≥ 50 µM

SMILES: Cc1cccc(Cc2ccc(Cc3cccc(C)c3)c(O)c2)c1 [Compound 0051]
- Log P (Log P; Table 5): 6.18
- EC50 [1, 6]: 1.5 µM
- EC50 [2, 7]: 15.4 µM

SMILES: Cc1ccc(OC(=O)C(C)C)c(Cc2cc(C)cc(Cc3cc(C)ccc3OC(=O)C(C)C)c2O)c1 [Compound 0127]
- Log P (Log P; Table 5): 8.31
- EC50 [1, 6]: 3.2 µM

SMILES: Oc1ccc(Br)cc1/C=N/Nc1ccccn1 [Compound 0241]
- Log P (Log P; Table 3): 2.740
- EC50 [1, 4]: 0.2 µM
- EC50 [2, 5]: ≥ 50 µM

SMILES: Oc1ccc(Cl)cc1/C=N/Nc1ccccn1 [Compound 0229]
- Log P (Log P; Table 3): 2.570
- EC50 [1, 4]: 2.4 µM
- EC50 [2, 5]: ≥ 50 µM

SMILES: CC(C)(C)c1cc(Br)c(O)c(/C=N/Nc2ccccn2)c1 [Compound 0401]
- Log P (Log P; Table 3): 4.810
- EC50 [1, 4]: 1.7 µM
- EC50 [1, 8]: 4.4 µM
- Neo:Bcl ([1]; Table 4): 5.7
- EC50 [3]: > 25 µM
- WT:142L [3]: 2.2
- EC50 [2, 5]: 40.8 µM
- EC50 [2, 9]: > 25 µM

SMILES: Oc1c(Br)cc(Cl)cc1/C=N/Nc1ccc(C(F)(F)F)cn1 [Compound 0275]
- Log P (Log P; Table 3): 4.980
- EC50 [1, 4]: 1.4 µM
- EC50 [2, 5]: 9.9 µM

SMILES: Oc1c(Cl)cc(Cl)cc1/C=N/Nc1ccccn1 [Compound 0233]
- Log P (Log P; Table 3): 3.190
- EC50 [1, 4]: 3.5 µM
- EC50 [2, 5]: ≥ 50 µM

SMILES: COc1c(Cl)cc(/C=N/Nc2ccccn2)c(O)c1Br [Compound 0355]
- Log P (Log P; Table 3): 3.820
- EC50 [1, 4]: 1.6 µM
- EC50 [2, 5]: 33 µM

SMILES: CC(C)(C)c1cc(O)c(/C=N/Nc2ccccn2)cc1Br [Compound 0353]
- Log P (Log P; Table 3): 4.810
- EC50 [1, 4]: 1.3 µM
- EC50 [2, 5]: 10 µM

SMILES: Oc1ccc(Br)cc1Sc1cc(Br)ccc1O [Compound 1049]
- Fold Select. (Neo/Bcl-XL) ([1]; Table 10): 2.2
- IC50 [1, 10]: 1.9 µM
- IC50 ([2]; Table 10): 4.2 µM

SMILES: Cc1cc(Cc2cc(Br)ccc2O)c(O)c(Cc2cc(Br)ccc2O)c1 [Compound 0039]
- EC50 [1, 6]: 0.7 µM
- EC50 [2, 7]: 2.9 µM

SMILES: CC(C)(C)c1ccc(Cc2ccc(Oc3ccccc3)cc2O)cc1 [Compound 0155]
- Log P (Log P; Table 5): 7.24
- EC50 [1, 6]: 1.9 µM
- EC50 [2, 7]: 12 µM

SMILES: COc1cc(Br)c(O)c(/C=N/NC(=O)c2ccccc2)c1 [Compound 0283]
- Log P (Log P; Table 3): 3.730
- EC50 [1, 4]: 2.5 µM
- EC50 [1, 8]: 3.5 µM
- Neo:Bcl ([1]; Table 4): 7.1
- EC50 [3]: > 25 µM
- WT:142L [3]: 7.1
- EC50 [2, 5]: ≥ 50 µM
- EC50 [2, 9]: > 25 µM

SMILES: COc1cc(Br)cc(/C=N/Nc2ccc(C(F)(F)F)cc2)c1O [Compound 0333]
- Log P (Log P; Table 3): 6.510
- EC50 [1, 4]: 2.2 µM
- EC50 [1, 8]: 2.7 µM
- Neo:Bcl ([1]; Table 4): 9.2
- EC50 [3]: 22.2 µM
- WT:142L [3]: 8.2
- EC50 [2, 5]: 26.9 µM
- EC50 [2, 9]: > 25 µM

SMILES: O=C(/N=C/c1cc(Br)cc(Br)c1O)c1ccccc1 [Compound 0347]
- Log P (Log P; Table 6): 4.250
- EC50 ([1]; Table 6, TAMH cells overexpressing Bcl-xL (Tabx2s), read-out: 2S EC50): 0.5 µM
- EC50 ([2]; Table 6, TAMH Neo cells, read-out: Neo EC50): 5.8 µM

SMILES: O=S(=O)(c1cc(Br)ccc1O)c1cc(Br)ccc1O [Compound 1050]
- Fold Select. (Neo/Bcl-XL) ([1]; Table 10): 2.8
- IC50 [1, 10]: 3.8 µM
- IC50 ([2]; Table 10): 10.5 µM

SMILES: Cc1cc(C)c(O)c(CNCc2ccccc2)c1 [Compound 47911]
- EC50 ([1]; Mus musculus, TAMH, Table 8, read-out: TAMH Bcl-xL): 4.1 µM
- EC50 ([1]; Mus musculus, TAMH, Table 20, read-out: Bcl-XL): 4.1 µM
- Neo/Bcl-xL ([1]; Table 8, selectivity ratio): 7.8
- Neo/Bcl-XL ([1]; Table 20): 7.8
- EC50 ([2]; Mus musculus, TAMH, Table 8, read-out: TANH Neo): 31.9 µM
- EC50 ([2]; Mus musculus, TAMH, Table 20, read-out: Neo): 31.9 µM

SMILES: Oc1c(Cl)cc(Cl)cc1Sc1cc(Cl)cc(Cl)c1O [Compound 9872]
- Fold Select. (Neo/Bcl-XL) ([1]; Table 10): 3.3
- IC50 [1, 10]: 2.3 µM
- IC50 ([2]; Table 10): 7.5 µM

SMILES: CC(C)(C)c1ccc(Cc2ccc(Cl)cc2Cl)cc1 [Compound 0149]
- logP (Log P): 6.28
- EC50 ([1]; Mus musculus, Table 6, TAMH cells overexpressing Bcl-xL (Tabx2s), read-out: 2S EC50): 1.1 µM
- EC50 ([2]; Mus musculus, Table 6, TAMH Neo cells, read-out: Neo EC50): 9.2 µM

SMILES: COc1ccc(Cl)cc1Cc1cc(Cl)cc(Cc2cc(Cl)ccc2O)c1OC [Compound 0088]
- Log P (Log P; Table 5): 7.4
- EC50 [1, 6]: 0.6 µM
- EC50 [2, 7]: 6.1 µM

SMILES: CC(C)c1ccc(Sc2ccc(C(C)C)cc2O)c(O)c1 [Compound 39635]
- Fold Select. (Neo/Bcl-XL) ([1]; Table 10): 1.3
- IC50 [1, 10]: 4.3 µM
- IC50 ([2]; Table 10): 7.8 µM

SMILES: CN(Cc1cc(Cl)cc(Cl)c1O)Cc1c(O)ccc2ccccc12 [Compound 85479]
- Neo/Bcl-XL ([1]; Table 18): 5.8
- EC50 ([1]; Table 18, read-out: Bcl-XL): 2.5 µM
- EC50 ([2]; Table 18, read-out: Neo): 14.5 µM

SMILES: CC(C)(C)c1cc(C(C)(C)c2ccccc2)cc(Cc2cc(C(C)(C)c3ccccc3)cc(C(C)(C)C)c2O)c1O [Compound 288938]
- Fold Select. (Neo/Bcl-XL) ([1]; Table 10): 3.3
- IC50 [1, 10]: 28 µM
- IC50 ([2]; Table 10): 93.1 µM

SMILES: CC(=O)c1cc(Cl)cc(Cc2cc(Cl)cc(Cc3cc(Cl)cc(C(C)=O)c3O)c2O)c1O [Compound 48698]
- Fold Select. (Neo/Bcl-xL) ([1]; Table 13): 8.1
- IC50 ([1]; Table 13, read-out: IC50 TAMH Bcl-xL): 0.7 µM
- IC50 ([2]; Table 13): 5.7 µM

SMILES: Oc1c(Cl)cc(Cl)cc1Sc1cc(Cl)cc(Cl)c1O [Compound 47129]
- Fold Select. (Neo/Bcl-XL) ([1]; Table 10): 4.6
- IC50 [1, 10]: 0.5 µM
- IC50 ([2]; Table 10): 2.3 µM

SMILES: Oc1c(Br)cc(Br)cc1/C=N/Nc1ccccn1 [Compound 0245]
- Log P (Log P; Table 3): 3.540
- EC50 [1, 4]: 3.3 µM
- EC50 [2, 5]: ≥ 50 µM

SMILES: O=[N+]([O-])c1ccc(S(=O)(=O)C2CCCCC2Cl)c([N+](=O)[O-])c1 (stereo not drawn) [Compound 405645]
- Fold Selectivity (Neo/Bcl-XL) ([1]; Table 15): 2.1
- IC50 ([1]; Table 15, read-out: IC50 TAMH Bcl-XL): 2.9 µM
- IC50 ([2]; Table 15): 6.1 µM

SMILES: O=C(/N=C/c1cc(Br)cc(Br)c1O)c1ccc(C(F)(F)F)cn1 [Compound 0298]
- EC50 [1, 4]: 2.3 µM
- EC50 [2, 5]: 13 µM

SMILES: CC(=O)Oc1ccc(C)cc1Cc1cc(C)cc(Cc2cc(C)ccc2OC(C)=O)c1OC(C)=O [Compound 0098]
- Log P (Log P; Table 5): 7.45
- EC50 [1, 6]: 1.6 µM
- EC50 [2, 7]: 10.4 µM

SMILES: [O-][S+](c1cc(Cl)cc(Cl)c1O)c1cc(Cl)cc(Cl)c1O [Compound 523910]
- Fold Select. (Neo/Bcl-XL) ([1]; Table 10): 6.4
- IC50 [1, 10]: 2.2 µM
- IC50 ([2]; Table 10): 14.2 µM

SMILES: CN(Cc1cc(Br)cc(Br)c1O)Cc1c(O)ccc2ccccc12 [Compound 88852]
- Neo/Bcl-XL ([1]; Table 18): 5.8
- EC50 ([1]; Table 18, read-out: Bcl-XL): 3.7 µM
- EC50 ([2]; Table 18, read-out: Neo): 21.5 µM

SMILES: Cc1cc(O)c(Sc2c(O)cc(C)cc2C(C)(C)C)c(C(C)(C)C)c1 [Compound 59685]
- Fold Select. (Neo/Bcl-XL) ([1]; Table 10): 5.5
- IC50 [1, 10]: 12 µM
- IC50 ([2]; Table 10): 66.4 µM

Source: US8865901B2, “Gain-of-function Bcl-2 inhibitors” (priority 2009, dated 2014)
